This note sets out measurements from US20100144672A1, “PYRIMIDINYL PYRAZOLES AS INSECTICIDES AND PARASITICIDE ACTIVE AGENTS” (BAYER CROPSCIENCE AG, priority 2006, published 2010).

The structures appear in SMILES notation. Read-outs that look alike come from different tables or passages of the source.

Data set [1] can be described thus: logP by HPLC (EEC-Directive 79/831 Annex V.A8). Type of data set: physicochemical. How it is done:
The logP values given in the tables were determined in accordance with EEC-Directive 79/831 Annex V.A8 by HPLC (gradient method, acetonitrile/0.1% strength aqueous phosphoric acid or formic acid).

The test system of data set [2] is larvae of the mustard beetle (Phaedon cochleariae). The data set is described as follows: Phaedon test (PHAECO spray treatment). The conditions noted are these: 168 h, application rate 500 g/ha, after 7 d, read-out: activity (effect in %, beetle larvae killed). Format: in vivo. How it is done:
Phaedon Test ([…] Spray Treatment) [table] To produce a suitable preparation of active compound, 1 part by weight of active compound is mixed with the stated amounts of solvents and emulsifier, and the concentrate is diluted with emulsifier-containing water to the desired concentration. Discs of chinese cabbage (Brassica pekinensis) are sprayed with an active compound preparation of the desired concentration and, after drying, populated with larvae of the mustard beetle (Phaedon cochleariae). After the desired period of time, the effect in % is determined 100% means that all beetle larvae have been killed; 0% means that none of the beetle larvae have been killed.

Setting [3] is: HPLC gradient method, acetonitrile/0.1% aqueous phosphoric acid or formic acid.
[4] abbreviates: Physical data column of Table 35.
The mark [5] stands for this setting: HPLC gradient method, acetonitrile/0.1% strength aqueous phosphoric acid or formic acid.

Take `Nc1c(-c2ccccc2Cl)c(C(F)(F)F)nn1-c1ncccn1` [1-04]: in data set [1], the logP entry is reported as “logP = 2.59”.
Take `Nc1c(-c2ccc(Oc3ccccc3)cc2)c(C(F)(F)F)nn1-c1ncccn1` [5-40]: the logP result in data set [1] (setting [3]) is “logP 3.22”.
`Nc1c(-c2cccc(Cl)c2)c(C(F)(F)F)nn1-c1ncccn1` [Example 1-5]: the logP result in data set [1] (setting [3]) is listed as “logP = 2.96”.
Consider `CCOc1ccc(-c2c(C(F)(F)F)nn(-c3ncccn3)c2N)cc1` [Example 5-23], for which, in data set [2], the pest or weed control at 500 g/ha is not below 80%.
On the same count and under the same terms, the result for `CC(C)Oc1ccc(-c2c(C(F)(F)F)nn(-c3ncccn3)c2N)cc1` [Example 5-25] reads not below 80%; that for `CSc1ccc(-c2c(C(F)(F)F)nn(-c3ncccn3)c2N)cc1` [Example 5-58], not below 80%.
Still for that read-out and setting: to `C[S+]([O-])c1ccc(-c2c(C(F)(F)F)nn(-c3ncccn3)c2N)cc1` (stereo not drawn) [Example 5-59] belongs not below 80%.
The same measure, in the same setting: the result for `CS(=O)(=O)c1ccc(-c2c(C(F)(F)F)nn(-c3ncccn3)c2N)cc1` [Example 5-60] reads not below 80%.
Regarding `CN(C)c1ccc(-c2c(C(F)(F)F)nn(-c3ncccn3)c2N)cc1` [Example 5-89], the pest or weed control at 500 g/ha in data set [2] was not below 80%.
Same read-out and setting: to `Nc1c(-c2cccc(SC(F)(F)F)c2)c(C(F)(F)F)nn1-c1ncccn1` [Example 6-61] belongs not below 80%; to `CC(C)Oc1ccc(-c2c(C(F)(F)F)nn(-c3ncccn3)c2N)cc1Cl` [Example 8-92, 4-(3-chloro-4-isopropoxyphenyl)-2-pyrimidin-2-yl-5-trifluoromethyl-2H-pyrazol-3-ylamine], not below 80%.
Same read-out and setting: the result for `CNc1c(-c2ccc(Br)cc2)c(C(F)(F)F)nn1-c1ncccn1` [Example 11-10, 4-(4-bromophenyl)-N-methyl-1-pyrimidin-2-yl-3-(trifluoromethyl)-1H-pyrazole-5-amine] reads not below 80%.
As for `FC(F)(F)c1nn(-c2ncccn2)c(Cl)c1-c1cccc(Cl)c1` [Example 14-06], the “logP (lgP), Physical data” value in data set [1] (by HPLC) is “lgP = 3.88”.
With `FC(F)(F)c1nn(-c2ncccn2)c(Br)c1-c1cccc(Cl)c1` [Example 14-25], in data set [1] (by HPLC), the “logP (lgP), Physical data” value is listed as “lgP = 3.89”.
For the compound `FC(F)(F)c1nn(-c2ncccn2)c(Br)c1-c1ccc(Br)cc1` [Example 14-29], the chromatographic logP in data set [1] (by HPLC, read-out: logP (lgP), Physical data) was found to be 3.75.
Turning to `FC(F)(F)c1nn(-c2ncccn2)c(Br)c1-c1cc(Cl)cc(Cl)c1` [Example 14-38], in data set [1] (by HPLC), the “logP (lgP), Physical data” value is recorded as “lgP = 4.62”.
On the same count and under the same terms, the result for `FC(F)(F)c1nn(-c2ncccn2)c(I)c1-c1cccc(Cl)c1` [Example 14-44] reads “lgP = 3.78”.
The same measure, in the same setting: the result for `FC(F)(F)c1nn(-c2ncccn2)c(I)c1-c1ccc(Cl)c(Cl)c1` [Example 14-56] reads “lgP = 4.39”; that for `FC(F)(F)c1nn(-c2ncccn2)c(I)c1-c1cc(Cl)cc(Cl)c1` [Example 14-57], “lgP = 4.51”.
As to `FC(F)(F)c1cc(Cl)cc(-c2c(C(F)(F)F)nn(-c3ncccn3)c2Br)c1` [Example 14-58], in data set [1] (by HPLC), the “logP (lgP), Physical data” value was “lgP = 4.64”.
The same measure, in the same setting: to `FC(F)(F)c1cc(Cl)cc(-c2c(C(F)(F)F)nn(-c3ncccn3)c2I)c1` [Example 14-59] belongs “lgP = 4.39”.
As to `Cc1nn(-c2ncccn2)c(N)c1-c1ccc(F)cc1Cl` [Example 16-18], the logP entry in data set [1] (Physical data column of Table 16) was “logP = 1.71”.
As to `Cc1ccnc(-n2nc(C(F)(F)F)c(-c3cccc(Br)c3)c2N)n1` [Example 19-09], in data set [1] (Table 19, Physical data), the lgP result is “lgP = 3.84”.
For `Cc1ccnc(-n2nc(C(F)(F)F)c(-c3ccc(Br)cc3)c2N)n1` [Example 19-10], the lgP entry in data set [1] (Table 19, Physical data) was “lgP = 3.37”.
Consider `Cc1ccnc(-n2nc(C(F)(F)F)c(-c3ccc(Cl)c(Cl)c3)c2N)n1` [Example 19-18], for which the lgP entry in data set [1] (Table 19, Physical data) was “lgP = 3.73”.
On the same count and under the same terms, the result for `Nc1c(-c2ccc(Br)cc2)c(C(F)(F)F)nn1-c1ncc(F)cn1` [Example 19-48] reads “lgP = 3.19”; that for `Nc1c(-c2cc(Cl)cc(Cl)c2)c(C(F)(F)F)nn1-c1ncc(F)cn1` [Example 19-57], “lgP = 3.63”; that for `Nc1c(-c2ccc(Cl)cc2)c(C(F)(F)F)nn1-c1ncc(Cl)cn1` [Example 19-64], “lgP = 3.53”.
For the compound `Nc1c(-c2cc(Cl)cc(Cl)c2)c(C(F)(F)F)nn1-c1ncc(Cl)cn1` [Example 19-76], the lgP result in data set [1] (Table 19, Physical data) was “lgP = 4.10”.
On the same count and under the same terms, to `Nc1c(-c2cc(Cl)cc(Cl)c2)c(C(F)(F)F)nn1-c1ncc(Br)cn1` [Example 19-95] belongs “lgP = 4.15”; to `Nc1c(-c2cc(Cl)cc(Cl)c2)c(C(F)(F)F)nn1-c1nccc(C(F)(F)F)n1` [Example 19-152], “lgP = 4.25”.
With `COc1ccnc(-n2nc(C(F)(F)F)c(-c3cc(Cl)cc(Cl)c3)c2N)n1` [Example 19-171], in data set [1] (Table 19, Physical data), the lgP entry is listed as “lgP = 2.93”.
Still for that read-out and setting: the result for `Cc1ccnc(-n2nc(C(F)(F)F)c(-c3cc(F)cc(Cl)c3)c2N)n1` [Example 19-198] reads “lgP = 3.42”; that for `Cc1ccnc(-n2nc(C(F)(F)F)c(-c3cc(F)cc(F)c3)c2N)n1` [Example 19-199], “lgP = 3.06”.
The same measure, in the same setting: to `Cc1ccnc(-n2nc(C(F)(F)F)c(-c3ccc(Br)cc3F)c2N)n1` [Example 19-200] belongs “lgP = 3.28”; to `Cc1ccnc(-n2nc(C(F)(F)F)c(-c3ccc(F)c(F)c3)c2N)n1` [Example 19-201], “lgP = 3.02”; to `Cc1cc(C)cc(-c2c(C(F)(F)F)nn(-c3nccc(C)n3)c2N)c1` [Example 19-202], “lgP = 3.42”.
Turning to `Cc1cnc(-n2nc(C(F)(F)F)c(-c3cc(F)cc(Cl)c3)c2N)nc1` [Example 19-203], the lgP entry in data set [1] (Table 19, Physical data) was “lgP = 3.42”.
Same read-out and setting: the result for `Cc1cnc(-n2nc(C(F)(F)F)c(-c3cc(F)cc(F)c3)c2N)nc1` [Example 19-204] reads “lgP = 3.06”.
With `Cc1cnc(-n2nc(C(F)(F)F)c(-c3ccc(Br)cc3F)c2N)nc1` [Example 19-205], in data set [1] (Table 19, Physical data), the lgP result is recorded as “lgP = 3.28”.
Same read-out and setting: to `Cc1cnc(-n2nc(C(F)(F)F)c(-c3ccc(F)c(F)c3)c2N)nc1` [Example 19-206] belongs “lgP = 3.02”; to `Cc1cnc(-n2nc(C(F)(F)F)c(-c3cc(Br)cc(Br)c3)c2N)nc1` [Example 19-207], “lgP = 4.05”; to `Cc1cnc(-n2nc(C(F)(F)F)c(-c3cc(C)cc(C)c3)c2N)nc1` [Example 19-208], “lgP = 3.47”.
Still for that read-out and setting: the result for `N#Cc1ccnc(-n2nc(C(F)(F)F)c(-c3cc(Cl)cc(Cl)c3)c2N)n1` [Example 19-209] reads “lgP = 3.84”.
In the case of `CCNc1c(-c2ccc(F)cc2)c(C)nn1-c1ncccn1` [Example 25-04], in data set [1] (Table 25, Physical data), the logP result is “logP = 2.59”.
On the same count and under the same terms, the result for `CCNc1c(-c2ccccc2Cl)c(C)nn1-c1ncccn1` [Example 25-05] reads “logP = 2.69”; that for `CCNc1c(-c2cccc(Cl)c2)c(C)nn1-c1ncccn1` [Example 25-06], “logP = 3.02”.
Take `CCNc1c(-c2ccc(F)cc2Cl)c(C)nn1-c1ncccn1` [Example 25-31]: the logP result in data set [1] is on record as “logP = 2.79”.
For `CCCNc1c(-c2cccc(Cl)c2)c(C)nn1-c1ncccn1` [Example 26-6], the logP result in data set [1] (Physical data of Table 26) is recorded as “logP = 3.37”.
Regarding `CCCNc1c(-c2ccc(Cl)cc2)c(C)nn1-c1ncccn1` [Example 26-7], the logP result in data set [1] (Physical data of Table 26) is “logP = 3.42”.
As for `Cc1nn(-c2ncccn2)c(NC(C)C)c1-c1ccc(F)cc1Cl` [Example 26-37], the logP entry in data set [1] (Physical data of Table 26) is given as “logP = 2.91”.
The same measure, in the same setting: to `Cc1nn(-c2ncccn2)c(NCc2ccccc2)c1-c1ccccc1Cl` [Example 26-44] belongs “logP = 3.37”; to `Cc1nn(-c2ncccn2)c(NCc2ccccc2)c1-c1ccc(Cl)cc1Cl` [Example 26-54], “logP = 4.23”; to `Cc1nn(-c2ncccn2)c(NCC2CC2)c1-c1ccc(F)cc1` [Example 26-62], “logP = 3.15”.
The same measure, in the same setting: to `CC(C)=CCNc1c(-c2ccc(Cl)cc2)c(C)nn1-c1ncccn1` [Example 26-84] belongs “logP = 3.84”.
For the compound `CCc1nn(-c2ncccn2)c(N)c1-c1ccc(Cl)nc1` [Example 32-37], in data set [1] (Physical data column of Table 32), the lgP entry is given as “lgP = 1.76”.
Consider `Nc1c(-c2ccc(Cl)cc2)c(C2CC2)nn1-c1ncccn1` [Example 35-07], for which, in data set [1] (setting [4]), the logP result was “logP 2.66; ^1H-NMR”.
On the same count and under the same terms, the result for `Nc1c(-c2ccc(Br)cc2)c(C2CCCC2)nn1-c1ncccn1` [Example 35-87] reads “logP 3.34”.
With `Nc1c(-c2cc(F)cc(Cl)c2)c(C(F)(F)F)nn1-c1ncc(F)cn1` [Example 43-07], in data set [1] (setting [5]), the lgP entry is given as “lgP = 3.24”.
For `Nc1c(-c2cc(F)cc(F)c2)c(C(F)(F)F)nn1-c1ncc(F)cn1` [Example 43-08], the lgP entry in data set [1] (setting [5]) was “lgP = 2.93”.
Still for that read-out and setting: the result for `Nc1c(-c2ccc(Br)cc2F)c(C(F)(F)F)nn1-c1ncc(F)cn1` [Example 43-09] reads “lgP = 3.15”; that for `Nc1c(-c2ccc(F)c(F)c2)c(C(F)(F)F)nn1-c1ncc(F)cn1` [Example 43-10], “lgP = 2.84”; that for `Nc1c(-c2cc(Br)cc(Br)c2)c(C(F)(F)F)nn1-c1ncc(F)cn1` [Example 43-11], “lgP = 3.84”.
